Each structure is given as a SMILES string. Read-outs that look alike come from different tables or passages of the source.

Assay [1] has as its target T1, human TLR8 (Homo sapiens, UniProt Q9NR97).
T1 construct: host or cells: human HEK-Blue cells (HEK293-derived) co-expressing TLR8 and an NF-kB/AP1-inducible SEAP reporter
T1 sequence (Q9NR97 27-1041): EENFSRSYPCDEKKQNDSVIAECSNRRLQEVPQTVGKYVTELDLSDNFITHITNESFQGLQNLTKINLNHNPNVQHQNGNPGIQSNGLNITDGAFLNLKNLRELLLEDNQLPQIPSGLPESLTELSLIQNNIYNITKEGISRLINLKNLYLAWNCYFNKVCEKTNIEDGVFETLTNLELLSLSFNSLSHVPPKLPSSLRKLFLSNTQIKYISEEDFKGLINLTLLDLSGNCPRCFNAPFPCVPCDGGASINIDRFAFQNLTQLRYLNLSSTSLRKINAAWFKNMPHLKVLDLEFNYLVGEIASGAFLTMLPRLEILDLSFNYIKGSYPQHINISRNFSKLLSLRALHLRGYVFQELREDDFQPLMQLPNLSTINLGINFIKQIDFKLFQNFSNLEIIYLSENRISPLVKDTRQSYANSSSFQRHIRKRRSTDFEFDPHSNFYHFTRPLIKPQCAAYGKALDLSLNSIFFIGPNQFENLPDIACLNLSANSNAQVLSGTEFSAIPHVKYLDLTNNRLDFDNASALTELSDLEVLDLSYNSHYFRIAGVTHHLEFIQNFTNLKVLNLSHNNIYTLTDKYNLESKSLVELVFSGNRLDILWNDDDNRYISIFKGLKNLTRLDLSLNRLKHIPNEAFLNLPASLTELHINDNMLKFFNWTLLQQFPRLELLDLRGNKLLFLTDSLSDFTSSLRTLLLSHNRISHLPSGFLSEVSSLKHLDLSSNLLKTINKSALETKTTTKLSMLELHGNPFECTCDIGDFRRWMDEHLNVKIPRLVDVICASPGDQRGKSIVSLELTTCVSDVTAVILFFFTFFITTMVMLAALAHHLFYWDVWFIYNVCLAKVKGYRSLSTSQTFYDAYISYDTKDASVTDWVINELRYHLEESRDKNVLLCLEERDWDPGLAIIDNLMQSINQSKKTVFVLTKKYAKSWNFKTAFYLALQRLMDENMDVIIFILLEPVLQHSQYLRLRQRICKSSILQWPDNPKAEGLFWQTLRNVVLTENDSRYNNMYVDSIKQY
Kind of assay: In vitro human TLR8 binding reporter assay (HEK-Blue, NF-kB/AP1-inducible SEAP). The format is cell-based. The note with it: HEK-Blue human TLR8 SEAP reporter cells; activity range classes; read-out: TLR8 Agonist EC50. A digest of the protocol: (§1)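 HEK-Blue cells expressing human TLR7 or TLR8 with NF-kB/AP1-inducible SEAP reporter, plated 24 h, then compound-treated 18 h at 37° C, 5% CO2. EC50 normalized to 100% Ymax set by 50 μM reference standard.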

Assay [2] concerns IL-1β production in PMA-differentiated THP-1 cells. Kind of assay: Measurement of IL-1β production in PMA-differentiated THP-1 cells (ELISA, 4 hours). The format is cell-based, human. The note with it: assayed using one or more of the described procedures, read-out: NLRP3 hIL1B IC50. A digest of the protocol: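 THP-1 cells differentiated with PMA (10 μg/ml, 24 h), replated at 1×10^6 cells/ml in RPMI with 2% FBS and exposed to compounds (e.g. 0.1–100 μM, 1% DMSO final) for 4 hours. IL-1β in cell-free supernatant quantified by ELISA against vehicle control.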

Assay [3] has as its target T2, human TLR7 (Homo sapiens, UniProt Q9NYK1).
T2 construct: host or cells: human HEK-Blue cells (HEK293-derived) co-expressing TLR7 and an NF-kB/AP1-inducible SEAP reporter
T2 sequence (Q9NYK1 27-1049): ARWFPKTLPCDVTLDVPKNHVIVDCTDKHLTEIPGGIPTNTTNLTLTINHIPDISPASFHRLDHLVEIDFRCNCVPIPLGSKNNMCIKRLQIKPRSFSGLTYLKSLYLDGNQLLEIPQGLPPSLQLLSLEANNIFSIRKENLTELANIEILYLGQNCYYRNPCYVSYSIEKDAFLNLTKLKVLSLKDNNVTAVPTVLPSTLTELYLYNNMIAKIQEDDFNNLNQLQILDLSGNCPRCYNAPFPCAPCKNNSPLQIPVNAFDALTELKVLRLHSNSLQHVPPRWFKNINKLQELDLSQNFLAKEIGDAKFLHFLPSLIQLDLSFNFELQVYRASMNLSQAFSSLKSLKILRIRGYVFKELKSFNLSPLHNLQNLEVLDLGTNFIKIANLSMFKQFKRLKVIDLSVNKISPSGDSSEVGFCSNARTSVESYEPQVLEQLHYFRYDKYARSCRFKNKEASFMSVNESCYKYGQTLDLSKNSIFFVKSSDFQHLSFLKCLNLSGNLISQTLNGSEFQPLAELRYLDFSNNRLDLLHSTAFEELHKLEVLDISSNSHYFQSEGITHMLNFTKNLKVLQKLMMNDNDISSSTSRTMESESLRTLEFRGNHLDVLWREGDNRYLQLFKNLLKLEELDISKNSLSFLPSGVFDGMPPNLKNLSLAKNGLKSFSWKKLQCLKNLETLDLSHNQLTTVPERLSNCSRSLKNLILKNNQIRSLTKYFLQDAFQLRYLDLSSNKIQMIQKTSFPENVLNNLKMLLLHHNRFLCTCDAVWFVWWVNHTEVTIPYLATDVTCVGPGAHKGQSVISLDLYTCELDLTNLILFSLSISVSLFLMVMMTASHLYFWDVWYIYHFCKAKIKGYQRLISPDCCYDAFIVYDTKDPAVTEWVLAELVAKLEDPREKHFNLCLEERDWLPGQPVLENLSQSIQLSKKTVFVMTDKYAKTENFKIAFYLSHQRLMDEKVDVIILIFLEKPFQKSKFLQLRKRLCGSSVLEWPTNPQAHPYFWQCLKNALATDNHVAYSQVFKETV
Kind of assay: In vitro human TLR7 binding reporter assay (HEK-Blue, NF-kB/AP1-inducible SEAP). The format is cell-based. To be noted: HEK-Blue human TLR7 SEAP reporter cells; activity range classes; read-out: TLR7 Agonist EC50. The method in brief:
as §1

The mark [4] stands for this setting: Homo sapiens, THP-1, human IL-1β production.

Regarding `Nc1cc(OCC2(CO)CCC2)c2ccc(-c3ccn[nH]3)cc2n1` [Compound 335], the EC50 in assay [1] and in assay [3] was above 100 µM in each case. Besides, the IC50 in assay [2] (setting [4]) was found to be 630 nM.

On to `Nc1cc(N[C@H]2CCCC[C@H]2O)c2ccc(-c3ccn[nH]3)cc2n1` (racemic) [Compound 157], for which the EC50 in assay [1] and in assay [3] was above 100 µM each time. In addition, in assay [2] (human IL-1β production), the IC50 was 730 nM.

Regarding `Nc1cc(NCc2ccccc2)c2ccc(-c3ccn[nH]3)cc2n1` [Compound 256], the EC50 in assay [1] and in assay [3] was above 100 µM throughout. For the same molecule, the IC50 in assay [2] (setting [4]) was 220 nM.

As to `Nc1cc(NCc2cnco2)c2ccc(-c3ccn[nH]3)cc2n1` [Compound 230], the EC50 in assay [1] and in assay [3] was above 100 µM in each case. The IC50 in assay [2] (setting [4]) came to 540 nM.

Consider `CC(C)(CO)COc1cc(N)nc2cc(-c3ccn[nH]3)ccc12` [Compound 310], for which the 50% effective concentration (EC50) in assay [1] and in assay [3] was above 100 µM throughout. Besides, in assay [2] (setting [4]), the IC50 came to 110 nM.

Consider `Nc1nc2cc(-c3cc[nH]n3)ccc2cc1CCCOCc1ccccc1` [Compound 104, 3-[3-(benzyloxy)propyl]-7-(1H-pyrazol-3-yl)quinolin-2-amine], for which the EC50 in assay [1] and in assay [3] was above 100 µM throughout. Besides, the IC50 in assay [2] (setting [4]) came to 690 nM.

On to `Cn1ccc(CNc2cc(N)nc3cc(-c4ccn[nH]4)ccc23)n1` [Compound 229], for which the EC50 in assay [1] and in assay [3] was above 100 µM in each case. Also, the IC50 in assay [2] (setting [4]) worked out at 90 nM.

As to `Nc1cc(OCC2(CO)COC2)c2ccc(-c3ccsc3)cc2n1` [Compound 332, (3-(((2-amino-7-(thiophen-3-yl)quinolin-4-yl)oxy)methyl)oxetan-3-yl)methanol], the EC50 in assay [1] and in assay [3] was above 100 µM each time. For the same molecule, in assay [2] (setting [4]), the IC50 turned out to be 650 nM.

In the case of `Nc1cc(O[C@H]2COC[C@H]2O)c2ccc(-c3ccn[nH]3)cc2n1` (racemic) [Compound 197], the EC50 in assay [1] and in assay [3] was above 100 µM throughout. Besides, the IC50 in assay [2] (setting [4]) turned out to be 2860 nM.

In the case of `Nc1cc(NCCCn2ccnc2)c2ccc(-c3ccn[nH]3)cc2n1` [Compound 241], the half-maximal effective concentration (EC50) in assay [1] and in assay [3] was above 100 µM throughout. Besides, in assay [2] (setting [4]), the IC50 came out at 2250 nM.

For `Nc1cc(NCC(O)c2cccnc2)c2ccc(-c3ccn[nH]3)cc2n1` (stereo not drawn) [Compound 154], the EC50 in assay [1] and in assay [3] was above 100 µM in each case. For the same molecule, the IC50 in assay [2] (setting [4]) worked out at 440 nM.

On to `CC(=O)NCCCOc1cc(N)nc2cc(-c3ccn[nH]3)ccc12` [Compound 200], for which the EC50 in assay [1] and in assay [3] was above 100 µM each time. The IC50 in assay [2] (setting [4]) was 1890 nM.

Regarding `Nc1cc(NCCC(=O)N2CCOCC2)c2ccc(-c3ccn[nH]3)cc2n1` [Compound 350, 3-((2-amino-7-(1H-pyrazol-5-yl)quinolin-4-yl)amino)-1-morpholinopropan-1-one], the EC50 in assay [1] and in assay [3] was above 100 µM throughout. In addition, the 50% inhibitory concentration (IC50) in assay [2] (setting [4]) amounted to 4190 nM.

`CC(=O)NCCc1cc(N)nc2cc(-c3ccn[nH]3)ccc12` [Compound 217, N-(2-(2-amino-7-(1H-pyrazol-5-yl)quinolin-4-yl)ethyl)acetamide]: the EC50 in assay [1] and in assay [3] was above 100 µM each time. In assay [2] (setting [4]), the IC50 is 14400 nM.

As to `CC(C)(C)OC(=O)N1CC(Nc2cc(N)nc3cc(-c4ccn[nH]4)ccc23)C1` [Compound 270], the EC50 in assay [1] and in assay [3] was above 100 µM in each case. In assay [2] (setting [4]), the IC50 is 7370 nM.

Turning to `Nc1cc(NCCc2ccccn2)c2ccc(-c3ccn[nH]3)cc2n1` [Compound 151], the EC50 in assay [1] and in assay [3] was above 100 µM in each case. In assay [2] (setting [4]), the IC50 was 310 nM.

As for `CCN(CCCCc1cc2ccc(-c3cc[nH]n3)cc2nc1N)C(C)=O` [Compound 111], the concentration for a half-maximal effect (EC50) in assay [1] and in assay [3] was above 100 µM throughout. In addition, in assay [2] (setting [4]), the IC50 was 2460 nM.

Turning to `CC(=O)N[C@H]1CCN(c2cc(N)nc3cc(-c4ccn[nH]4)ccc23)C1` [Compound 158], the EC50 in assay [1] and in assay [3] was above 100 µM throughout. Besides, in assay [2] (setting [4]), the concentration for half-maximal inhibition (IC50) came to 35800 nM.

On to `Nc1cc(N[C@H]2CCOC2)c2ccc(-c3ccn[nH]3)cc2n1` [Compound 277], for which the half-maximal effective concentration (EC50) in assay [1] and in assay [3] was above 100 µM each time. Further, the IC50 in assay [2] (setting [4]) was determined as 220 nM.

Regarding `Nc1cc(N[C@H]2CC[C@H](O)C2)c2ccc(-c3ccn[nH]3)cc2n1` [Compound 246], the EC50 in assay [1] and in assay [3] was above 100 µM throughout. Further, in assay [2] (setting [4]), the IC50 turned out to be 170 nM.

Regarding `CS(=O)(=O)Nc1cccc(CNc2cc(N)nc3cc(-c4ccn[nH]4)ccc23)c1` [Compound 257], the EC50 in assay [1] and in assay [3] was above 100 µM in each case. In assay [2] (setting [4]), the IC50 stood at 680 nM.

For the molecule `Nc1cc(NCC(F)(F)c2ccccn2)c2ccc(-c3ccn[nH]3)cc2n1` [Compound 161], the EC50 in assay [1] and in assay [3] was above 100 µM in each case. The IC50 in assay [2] (setting [4]) turned out to be 150 nM.

Turning to `CC(=O)NCCOc1cc(N)nc2cc(-c3ccn[nH]3)ccc12` [Compound 188], the EC50 in assay [1] and in assay [3] was above 100 µM each time. Moreover, the IC50 in assay [2] (setting [4]) was 6310 nM.

For the molecule `CCNCCCc1cc2ccc(-c3cc[nH]n3)cc2nc1N` [Compound 110, 3-[3-(ethylamino)propyl]-7-(1H-pyrazol-3-yl)quinolin-2-amine], the EC50 in assay [1] and in assay [3] was above 100 µM each time. Moreover, the IC50 in assay [2] (setting [4]) was found to be 1640 nM.

On to `Nc1cc(N[C@H]2CC[C@@H](O)C2)c2ccc(-c3ccn[nH]3)cc2n1` [Compound 245], for which the EC50 in assay [1] and in assay [3] was above 100 µM each time. The 50% inhibitory concentration (IC50) in assay [2] (setting [4]) is 1340 nM.

Regarding `Nc1cc(NCC2(CO)COC2)c2ccc(-c3ccsc3)cc2n1` [Compound 338, (3-(((2-amino-7-(thiophen-3-yl)quinolin-4-yl)amino)methyl)oxetan-3-yl)methanol], the EC50 in assay [1] and in assay [3] was above 100 µM throughout. The IC50 in assay [2] (setting [4]) was determined as 3410 nM.

Turning to `Cn1nccc1CNc1cc(N)nc2cc(-c3ccn[nH]3)ccc12` [Compound 242], the EC50 in assay [1] and in assay [3] was above 100 µM throughout. Also, in assay [2] (setting [4]), the IC50 came out at 2350 nM.

The values are drawn from US12171756B2, “NLRP3 modulators” (Innate Tumor Immunity, Inc., priority 2017, dated 2024).
